# Source: ChEMBL document CHEMBL1135076, “Leishmanicidal activity of some aliphatic diamines and amino-alcohols” (Bioorg Med Chem Lett, 2002)
# Assays:
# Type in all cases: functional, organism-based
# Leishmania braziliensis [1] = assay: Tested in vitro for leishmanicidal activity against Leishmania brasiliensis (2903) at the concentration of 50 ug/mL; ++ indicates 80-90%lysis of parasites
# Leishmania donovani [2] = assay: Tested in vitro for leishmanicidal activity against Leishmania donovani (PP75) at the concentration of 50 ug/mL;++ indicates 80-90%lysis of parasites
# Leishmania donovani [3] = assay: In vitro for leishmanicidal activity against Leishmania donovani (PP75) at the concentration of 100 ug/mL.
# Leishmania donovani [4] = assay: In vitro for leishmanicidal activity against Leishmania donovani (PP75) at the concentration of 10 ug/mL.
# Leishmania donovani [5] = assay: Tested in vitro for leishmanicidal activity against Leishmania donovani (PP75) at the concentration of 25 ug/mL;+ indicates Less than 70% lysis of parasites
# Leishmania amazonensis [6] = assay: Tested in vitro for leishmanicidal activity against Leishmania amazonensis (PH8) at the concentration of 25 ug/mL; + indicates less than 70% lysis of parasites
# Leishmania braziliensis [7] = assay: Tested in vitro for leishmanicidal activity against Leishmania brasiliensis (2903) at the concentration of 25 ug/mL; + indicates Less than 70% lysis of parasites
# Leishmania amazonensis [8] = assay: Tested in vitro for leishmanicidal activity against Leishmania amazonensis (PH8) at the concentration of 50 ug/mL; ++ indicates 80-90% lysis of parasites
# Leishmania amazonensis [9] = assay: In vitro for leishmanicidal activity against Leishmania amazonensis (PH8) at the concentration of 10 ug/mL.
# Leishmania amazonensis [10] = assay: In vitro for leishmanicidal activity against Leishmania amazonensis (PH8) at the concentration of 100 ug/mL.
# Leishmania braziliensis [11] = assay: Tested in vitro for leishmanicidal activity against Leishmania brasiliensis (2903) at the concentration of 10 ug/mL; + indicates Less than 70% lysis of parasites
# Leishmania amazonensis [12] = assay: In vitro for leishmanicidal activity against Leishmania amazonensis (PH8) at the concentration of 50 ug/mL.
# Leishmania braziliensis [13] = assay: Tested in vitro for leishmanicidal activity against Leishmania brasiliensis (2903) at the concentration of 25 ug/mL; ++ indicates 80-90%lysis of parasites
# Leishmania donovani [14] = assay: In vitro for leishmanicidal activity against Leishmania donovani (PP75) at the concentration of 50 ug/mL.
# Leishmania braziliensis [15] = assay: Tested in vitro for leishmanicidal activity against Leishmania brasiliensis (2903) at the concentration of 25 ug/mL; ++ indicates 80-90% lysis of parasites
# Leishmania amazonensis [16] = assay: Tested in vitro for leishmanicidal activity against Leishmania amazonensis (PH8) at the concentration of 25 ug/mL; ++ indicates 80-90% lysis of parasites
# Leishmania donovani [17] = assay: Tested in vitro for leishmanicidal activity against Leishmania donovani (PP75) at the concentration of 25 ug/mL;++ indicates 80-90% lysis of parasites
# Leishmania braziliensis [18] = assay: Tested in vitro for leishmanicidal activity against Leishmania brasiliensis (2903) at the concentration of 10 ug/mL; + indicatesLess than 70% lysis of parasites
# Leishmania amazonensis [19] = assay: Tested in vitro for leishmanicidal activity against Leishmania amazonensis (PH8) at the concentration of 10 ug/mL; ++ indicates 80-90% lysis of parasites
# Leishmania donovani [20] = assay: Tested in vitro for leishmanicidal activity against Leishmania donovani (PP75) at the concentration of 10 ug/mL;++ indicates 80-90% lysis of parasites
# Leishmania braziliensis [21] = assay: Tested in vitro for leishmanicidal activity against Leishmania brasiliensis (2903) at the concentration of 10 ug/mL; ++ indicates 80-90% lysis of parasites
# Leishmania braziliensis [22] = assay: In vitro for leishmanicidal activity against Leishmania brasiliensis (2903) at the concentration of 100 ug/mL.
# Leishmania donovani [23] = assay: Tested in vitro for leishmanicidal activity against Leishmania donovani (PP75) at the concentration of 25 ug/mL;++ indicates 80-90%lysis of parasites
# Leishmania amazonensis [24] = assay: Tested in vitro for leishmanicidal activity against Leishmania amazonensis (PH8) at the concentration of 25 ug/mL;++ indicates 80-90% lysis of parasites
# Leishmania braziliensis [25] = assay: Tested in vitro for leishmanicidal activity against Leishmania brasiliensis (2903) at the concentration of 10 ug/mL;+ indicates Less than 70% lysis of parasites
# Leishmania braziliensis [26] = assay: Tested in vitro for leishmanicidal activity against Leishmania brasiliensis (2903) at the concentration of 25 ug/mL;++ indicates 80-90% lysis of parasites
# Leishmania donovani [27] = assay: Tested in vitro for leishmanicidal activity against Leishmania donovani (PP75) at the concentration of 10 ug/mL++ indicates 80-90% lysis of parasites
# Leishmania braziliensis [28] = assay: Tested in vitro for leishmanicidal activity against Leishmania brasiliensis (2903) at the concentration of 10 ug/mL;++ indicates 80-90% lysis of parasites
# Leishmania donovani [29] = assay: Tested in vitro for leishmanicidal activity against Leishmania donovani (PP75) at the concentration of 50 ug/mL;+ indicates Less than 70% lysis of parasites
# Leishmania braziliensis [30] = assay: In vitro for leishmanicidal activity against Leishmania brasiliensis (2903) at the concentration of 10 ug/mL.
# Leishmania amazonensis [31] = assay: Tested in vitro for leishmanicidal activity against Leishmania amazonensis (PH8) at the concentration of 50 ug/mL; + indicates less than 70% lysis of parasites
# Leishmania braziliensis [32] = assay: Tested in vitro for leishmanicidal activity against Leishmania brasiliensis (2903) at the concentration of 50 ug/mL; + indicates Less than 70% lysis of parasites
# Leishmania donovani [33] = assay: Tested in vitro for leishmanicidal activity against Leishmania donovani (PP75) at the concentration of 10 ug/mL
# Leishmania donovani [34] = assay: Tested in vitro for leishmanicidal activity against Leishmania donovani (PP75) at the concentration of 50 ug/mL;++ indicates 80-90% lysis of parasites
# Leishmania amazonensis [35] = assay: Tested in vitro for leishmanicidal activity against Leishmania amazonensis (PH8) at the concentration of 50 ug/mL;++ indicates 80-90% lysis of parasites
# Leishmania braziliensis [36] = assay: Tested in vitro for leishmanicidal activity against Leishmania brasiliensis (2903) at the concentration of 50 ug/mL;++ indicates 80-90% lysis of parasites
Structure (SMILES),Activity (Leishmania donovani [3]),Activity (Leishmania donovani [4]),Activity (Leishmania donovani [5]),Activity (Leishmania amazonensis [6]),Activity (Leishmania braziliensis [7]),Activity (Leishmania amazonensis [9]),Activity (Leishmania amazonensis [10]),Activity (Leishmania amazonensis [12]),Activity (Leishmania donovani [14]),other results
CCCCCCCCCCCCCCC(CO)NCC(=O)OCC (stereo not drawn),+,80-90% lysis of parasites,80-90% lysis of parasites,80-90% lysis of parasites,80-90% lysis of parasites,80-90% lysis of parasites,+,,,Activity (Leishmania braziliensis [1]): 80-90% lysis of parasites; Activity (Leishmania donovani [2]): 80-90% lysis of parasites; Activity (Leishmania amazonensis [8]): 80-90% lysis of parasites; Activity (Leishmania braziliensis [11]): 80-90% lysis of parasites
CCCCCCCCCCCCCCC(CO)N(CC)CC (stereo not drawn),+,80-90% lysis of parasites,80-90% lysis of parasites,80-90% lysis of parasites,,80-90% lysis of parasites,+,+,+,Activity (Leishmania braziliensis [13]): 80-90% lysis of parasites
CCCCCCCCCCCCCCC(COCc1ccccc1)NCC (stereo not drawn),+,80-90% lysis of parasites,,,,80-90% lysis of parasites,+,+,80-90% lysis of parasites,Activity (Leishmania braziliensis [15]): 80-90% lysis of parasites; Activity (Leishmania amazonensis [16]): 80-90% lysis of parasites; Activity (Leishmania donovani [17]): 80-90% lysis of parasites; Activity (Leishmania braziliensis [18]): 80-90% lysis of parasites
CCCCCCCCCCCCCCC(CO)NCC (stereo not drawn),+,,,,,,+,+,+,Activity (Leishmania amazonensis [19]): 80-90% lysis of parasites; Activity (Leishmania donovani [20]): 80-90% lysis of parasites; Activity (Leishmania braziliensis [21]): 80-90% lysis of parasites
CCCCCCCCCCCCCCC(CN(CC)CC)NC(=O)CCCC(=O)O (stereo not drawn),+,80-90% lysis of parasites,,,,80-90% lysis of parasites,+,+,+,Activity (Leishmania braziliensis [22]): +; Activity (Leishmania donovani [23]): 80-90% lysis of parasites; Activity (Leishmania amazonensis [24]): 80-90% lysis of parasites; Activity (Leishmania braziliensis [25]): 80-90% lysis of parasites; Activity (Leishmania braziliensis [26]): 80-90% lysis of parasites
CCCCCCCCCCCCCCC(N)CN(CC(=O)OCC)CC(=O)OCC (stereo not drawn),+,,,,,,+,+,+,Activity (Leishmania braziliensis [22]): +; Activity (Leishmania donovani [27]): 80-90% lysis of parasites; Activity (Leishmania amazonensis [19]): 80-90% lysis of parasites; Activity (Leishmania braziliensis [28]): 80-90% lysis of parasites
CCCCCCCCCCCCCCC(CO)NCC(=O)O (stereo not drawn),+,,Less than 70% lysis of parasites,Less than 70% lysis of parasites,Less than 70% lysis of parasites,Less than 70% lysis of parasites,+,,,Activity (Leishmania donovani [29]): Less than 70% lysis of parasites; Activity (Leishmania braziliensis [30]): Less than 70% lysis of parasites; Activity (Leishmania amazonensis [31]): Less than 70% lysis of parasites; Activity (Leishmania braziliensis [32]): Less than 70% lysis of parasites; Activity (Leishmania donovani [33]): Less than 70% lysis of parasites
CCCCCCCCCCCCCCC(CO)NC(=O)CCCC(=O)O (stereo not drawn),+,80-90% lysis of parasites,80-90% lysis of parasites,80-90% lysis of parasites,80-90% lysis of parasites,80-90% lysis of parasites,+,,,Activity (Leishmania donovani [34]): 80-90% lysis of parasites; Activity (Leishmania amazonensis [35]): 80-90% lysis of parasites; Activity (Leishmania braziliensis [36]): 80-90% lysis of parasites; Activity (Leishmania braziliensis [11]): 80-90% lysis of parasites
